Source: ChEMBL document CHEMBL3132769, “Fragment growing to retain or alter the selectivity of anchored kinase hinge-binding fragments” (Medchemcomm, 2014)

How the values were obtained:
[1] = target: Proto-oncogene tyrosine-protein kinase Src (Homo sapiens) (UniProt P12931); assay: Inhibition of human full length SRC expressed in baculovirus assessed as substrate phosphorylation using fluorescence-labelled peptides as substrate at 9 uM after 90 mins by microfluidic peptide phosphorylation assay
Proto-oncogene tyrosine-protein kinase Src (Homo sapiens), sequence (P12931 2-536 limits assumed): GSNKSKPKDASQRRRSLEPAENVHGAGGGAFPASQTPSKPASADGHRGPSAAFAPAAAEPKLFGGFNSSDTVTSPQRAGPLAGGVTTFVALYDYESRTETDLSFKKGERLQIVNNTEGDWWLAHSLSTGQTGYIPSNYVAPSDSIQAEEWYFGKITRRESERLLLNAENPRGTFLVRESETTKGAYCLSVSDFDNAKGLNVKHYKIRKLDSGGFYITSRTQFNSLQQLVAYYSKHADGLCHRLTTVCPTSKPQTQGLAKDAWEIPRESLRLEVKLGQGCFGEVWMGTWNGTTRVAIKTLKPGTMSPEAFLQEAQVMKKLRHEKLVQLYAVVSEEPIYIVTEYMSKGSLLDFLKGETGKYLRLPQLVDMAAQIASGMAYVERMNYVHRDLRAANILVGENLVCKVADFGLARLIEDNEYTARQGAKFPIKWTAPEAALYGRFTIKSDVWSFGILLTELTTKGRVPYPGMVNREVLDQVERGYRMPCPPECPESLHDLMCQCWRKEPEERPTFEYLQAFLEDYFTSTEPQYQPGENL

[2] = target: T1, Serine/threonine-protein kinase Sgk3 (Homo sapiens) (UniProt Q96BR1); assay: Inhibition of human full length SGK3 expressed in baculovirus assessed as substrate phosphorylation using fluorescence-labelled peptides as substrate at 9 uM after 90 mins by microfluidic peptide phosphorylation assay
T1 sequence (whole entry): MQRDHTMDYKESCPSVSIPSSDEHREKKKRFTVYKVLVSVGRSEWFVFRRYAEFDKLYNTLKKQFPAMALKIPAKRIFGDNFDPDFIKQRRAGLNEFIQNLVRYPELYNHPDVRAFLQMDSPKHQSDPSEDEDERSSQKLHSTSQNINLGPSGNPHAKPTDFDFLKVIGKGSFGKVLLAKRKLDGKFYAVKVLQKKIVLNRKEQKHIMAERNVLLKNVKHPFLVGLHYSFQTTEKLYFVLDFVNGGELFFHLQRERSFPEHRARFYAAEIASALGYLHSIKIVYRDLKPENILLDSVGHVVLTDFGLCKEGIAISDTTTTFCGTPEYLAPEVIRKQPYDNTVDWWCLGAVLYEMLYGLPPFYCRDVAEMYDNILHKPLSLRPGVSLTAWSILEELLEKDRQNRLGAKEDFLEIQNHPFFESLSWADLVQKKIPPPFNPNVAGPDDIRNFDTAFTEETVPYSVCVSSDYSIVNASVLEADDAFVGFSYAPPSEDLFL

[3] = target: Calcium/calmodulin-dependent protein kinase type II subunit gamma (Homo sapiens) (UniProt Q13555); assay: Inhibition of human CAMK2 gamma catalytic domain expressed in baculovirus assessed as substrate phosphorylation using fluorescence-labelled peptides as substrate at 95 uM after 90 mins by microfluidic peptide phosphorylation assay
Calcium/calmodulin-dependent protein kinase type II subunit gamma (Homo sapiens), sequence (Q13555 whole entry, the tested form may be a part): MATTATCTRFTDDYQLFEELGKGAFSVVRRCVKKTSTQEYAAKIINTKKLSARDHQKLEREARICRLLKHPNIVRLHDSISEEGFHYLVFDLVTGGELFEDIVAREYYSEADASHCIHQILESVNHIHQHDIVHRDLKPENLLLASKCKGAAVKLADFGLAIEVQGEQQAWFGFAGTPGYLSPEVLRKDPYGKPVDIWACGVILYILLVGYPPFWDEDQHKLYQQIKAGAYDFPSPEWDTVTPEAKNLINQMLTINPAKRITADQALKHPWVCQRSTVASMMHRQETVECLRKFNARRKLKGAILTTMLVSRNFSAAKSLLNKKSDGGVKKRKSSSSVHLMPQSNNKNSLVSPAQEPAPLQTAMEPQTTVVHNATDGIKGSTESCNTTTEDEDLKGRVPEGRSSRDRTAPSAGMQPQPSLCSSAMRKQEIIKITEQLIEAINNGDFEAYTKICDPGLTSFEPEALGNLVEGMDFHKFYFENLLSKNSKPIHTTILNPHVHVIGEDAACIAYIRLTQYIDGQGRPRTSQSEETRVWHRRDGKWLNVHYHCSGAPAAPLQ

[4] = tested on: Tyrosine-protein kinase ABL1 (Homo sapiens), P00519 [Q252H]; assay: Inhibition of human truncated ABL Q252H mutant expressed in baculovirus assessed as substrate phosphorylation using fluorescence-labelled peptides as substrate at 95 uM after 90 mins by microfluidic peptide phosphorylation assay
[5] = target: Calcium/calmodulin-dependent protein kinase type II subunit delta (Homo sapiens) (UniProt Q13557); assay: Inhibition of human full length CAMK2D expressed in baculovirus assessed as substrate phosphorylation using fluorescence-labelled peptides as substrate at 95 uM after 90 mins by microfluidic peptide phosphorylation assay
Calcium/calmodulin-dependent protein kinase type II subunit delta (Homo sapiens), sequence (Q13557 whole entry, the tested form may be a part): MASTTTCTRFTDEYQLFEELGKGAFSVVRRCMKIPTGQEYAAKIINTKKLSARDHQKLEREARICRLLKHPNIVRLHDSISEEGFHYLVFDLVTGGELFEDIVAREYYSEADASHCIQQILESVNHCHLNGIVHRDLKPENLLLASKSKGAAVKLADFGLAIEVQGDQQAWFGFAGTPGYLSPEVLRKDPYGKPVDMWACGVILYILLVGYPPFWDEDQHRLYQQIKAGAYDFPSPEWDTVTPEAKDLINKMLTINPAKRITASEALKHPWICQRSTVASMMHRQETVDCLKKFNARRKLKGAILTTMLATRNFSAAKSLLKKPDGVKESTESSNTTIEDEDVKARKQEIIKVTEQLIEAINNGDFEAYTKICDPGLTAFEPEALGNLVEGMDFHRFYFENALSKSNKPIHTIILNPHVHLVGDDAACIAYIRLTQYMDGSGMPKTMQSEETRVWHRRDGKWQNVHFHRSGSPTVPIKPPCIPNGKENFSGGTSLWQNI

[6] = target: Calcium/calmodulin-dependent protein kinase type II subunit gamma (Homo sapiens) (UniProt Q13555); assay: Inhibition of human CAMK2 gamma catalytic domain expressed in baculovirus assessed as substrate phosphorylation using fluorescence-labelled peptides as substrate at 0.06 uM after 90 mins by microfluidic peptide phosphorylation assay
[7] = target: Protein kinase C beta type (Homo sapiens) (UniProt P05771); assay: Inhibition of human full length PKC beta2 expressed in baculovirus assessed as substrate phosphorylation using fluorescence-labelled peptides as substrate at 420 uM after 90 mins by microfluidic peptide phosphorylation assay
Protein kinase C beta type (Homo sapiens), sequence (P05771 2-671 limits assumed): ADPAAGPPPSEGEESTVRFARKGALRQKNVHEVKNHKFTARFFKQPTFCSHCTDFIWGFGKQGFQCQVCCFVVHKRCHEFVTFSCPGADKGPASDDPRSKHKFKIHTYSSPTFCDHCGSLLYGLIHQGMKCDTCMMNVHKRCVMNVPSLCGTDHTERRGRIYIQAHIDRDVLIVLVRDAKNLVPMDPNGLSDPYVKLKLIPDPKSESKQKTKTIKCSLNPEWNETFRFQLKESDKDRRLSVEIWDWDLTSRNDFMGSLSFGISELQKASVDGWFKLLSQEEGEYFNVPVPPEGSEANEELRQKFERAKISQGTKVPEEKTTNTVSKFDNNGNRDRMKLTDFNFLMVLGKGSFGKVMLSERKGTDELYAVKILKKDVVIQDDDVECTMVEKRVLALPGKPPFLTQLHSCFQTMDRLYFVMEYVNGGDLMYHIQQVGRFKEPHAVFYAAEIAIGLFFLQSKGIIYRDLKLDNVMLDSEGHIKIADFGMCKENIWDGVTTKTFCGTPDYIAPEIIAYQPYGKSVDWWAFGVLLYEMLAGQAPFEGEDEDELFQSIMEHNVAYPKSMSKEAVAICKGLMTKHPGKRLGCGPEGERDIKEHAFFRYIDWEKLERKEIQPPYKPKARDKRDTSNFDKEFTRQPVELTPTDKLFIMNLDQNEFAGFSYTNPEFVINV

[8] = target: T2, cGMP-dependent protein kinase 1 (Homo sapiens) (UniProt Q13976); assay: Inhibition of human full length PKG-1beta expressed in baculovirus assessed as substrate phosphorylation using fluorescence-labelled peptides as substrate at 420 uM after 90 mins by microfluidic peptide phosphorylation assay
T2 sequence (whole entry): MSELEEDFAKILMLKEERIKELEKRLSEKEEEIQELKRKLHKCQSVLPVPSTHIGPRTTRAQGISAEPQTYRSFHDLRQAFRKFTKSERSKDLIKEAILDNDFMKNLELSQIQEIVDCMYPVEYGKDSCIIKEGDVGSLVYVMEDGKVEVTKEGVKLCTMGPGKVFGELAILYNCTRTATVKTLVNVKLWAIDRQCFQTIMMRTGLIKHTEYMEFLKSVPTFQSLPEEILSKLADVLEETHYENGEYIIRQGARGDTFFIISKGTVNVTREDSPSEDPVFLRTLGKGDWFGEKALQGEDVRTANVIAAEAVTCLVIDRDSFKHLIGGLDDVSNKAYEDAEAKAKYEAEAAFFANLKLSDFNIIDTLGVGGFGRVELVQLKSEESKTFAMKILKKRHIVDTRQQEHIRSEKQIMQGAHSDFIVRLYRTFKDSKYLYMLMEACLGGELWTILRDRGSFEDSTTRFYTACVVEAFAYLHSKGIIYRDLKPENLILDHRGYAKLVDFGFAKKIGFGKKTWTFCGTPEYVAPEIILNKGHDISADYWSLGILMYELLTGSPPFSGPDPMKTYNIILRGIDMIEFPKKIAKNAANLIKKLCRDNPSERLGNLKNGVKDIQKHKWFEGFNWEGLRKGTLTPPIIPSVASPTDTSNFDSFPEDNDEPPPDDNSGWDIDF

[9] = target: Ribosomal protein S6 kinase alpha-3 (Homo sapiens) (UniProt P51812); assay: Inhibition of human full length RSK2 expressed in baculovirus assessed as substrate phosphorylation using fluorescence-labelled peptides as substrate at 70 uM after 90 mins by microfluidic peptide phosphorylation assay
Ribosomal protein S6 kinase alpha-3 (Homo sapiens), sequence (P51812 whole entry): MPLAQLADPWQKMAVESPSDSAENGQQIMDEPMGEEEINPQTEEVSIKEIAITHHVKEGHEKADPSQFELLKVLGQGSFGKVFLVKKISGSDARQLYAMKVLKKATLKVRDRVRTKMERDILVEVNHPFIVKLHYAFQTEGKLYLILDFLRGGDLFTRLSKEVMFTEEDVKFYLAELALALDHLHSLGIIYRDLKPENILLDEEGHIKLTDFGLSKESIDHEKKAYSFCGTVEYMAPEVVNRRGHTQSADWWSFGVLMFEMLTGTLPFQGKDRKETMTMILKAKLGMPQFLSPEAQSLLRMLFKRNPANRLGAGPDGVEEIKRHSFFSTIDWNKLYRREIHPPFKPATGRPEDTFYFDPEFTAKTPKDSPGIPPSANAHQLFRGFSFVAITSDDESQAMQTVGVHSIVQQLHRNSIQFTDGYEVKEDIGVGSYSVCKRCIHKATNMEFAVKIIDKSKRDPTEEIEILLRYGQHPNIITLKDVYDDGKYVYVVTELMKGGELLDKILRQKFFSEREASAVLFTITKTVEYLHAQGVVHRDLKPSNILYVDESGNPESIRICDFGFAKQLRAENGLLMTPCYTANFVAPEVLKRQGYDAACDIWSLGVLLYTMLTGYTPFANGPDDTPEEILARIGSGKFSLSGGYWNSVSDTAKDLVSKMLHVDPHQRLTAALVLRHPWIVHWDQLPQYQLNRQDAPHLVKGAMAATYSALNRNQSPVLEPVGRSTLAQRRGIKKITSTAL

[10] = target: T3, Mitogen-activated protein kinase 12 (Homo sapiens) (UniProt P53778); assay: Inhibition of human full length p38 gamma expressed in Escherichia coli cell assessed as substrate phosphorylation using fluorescence-labelled peptides as substrate at 8 uM after 90 mins by microfluidic peptide phosphorylation assay
T3 sequence (whole entry): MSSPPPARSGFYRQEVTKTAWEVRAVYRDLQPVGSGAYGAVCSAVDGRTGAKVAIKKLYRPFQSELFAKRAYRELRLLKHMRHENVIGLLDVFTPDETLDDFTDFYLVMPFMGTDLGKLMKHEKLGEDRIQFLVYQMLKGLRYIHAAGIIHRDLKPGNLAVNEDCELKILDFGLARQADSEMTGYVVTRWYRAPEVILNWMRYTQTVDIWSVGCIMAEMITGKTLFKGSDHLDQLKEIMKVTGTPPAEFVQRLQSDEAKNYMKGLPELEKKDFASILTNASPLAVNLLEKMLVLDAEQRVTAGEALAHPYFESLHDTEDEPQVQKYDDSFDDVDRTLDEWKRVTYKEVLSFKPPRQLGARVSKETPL

[11] = target: Protein kinase C beta type (Homo sapiens) (UniProt P05771); assay: Inhibition of human truncated PKC beta1 expressed in baculovirus assessed as substrate phosphorylation using fluorescence-labelled peptides as substrate at 8 uM after 90 mins by microfluidic peptide phosphorylation assay
[12] = target: Tyrosine-protein kinase BTK (Homo sapiens) (UniProt Q06187); assay: Inhibition of human full length BTK expressed in baculovirus assessed as substrate phosphorylation using fluorescence-labelled peptides as substrate at 8 uM after 90 mins by microfluidic peptide phosphorylation assay
Tyrosine-protein kinase BTK (Homo sapiens), sequence (Q06187 whole entry, canonical isoform): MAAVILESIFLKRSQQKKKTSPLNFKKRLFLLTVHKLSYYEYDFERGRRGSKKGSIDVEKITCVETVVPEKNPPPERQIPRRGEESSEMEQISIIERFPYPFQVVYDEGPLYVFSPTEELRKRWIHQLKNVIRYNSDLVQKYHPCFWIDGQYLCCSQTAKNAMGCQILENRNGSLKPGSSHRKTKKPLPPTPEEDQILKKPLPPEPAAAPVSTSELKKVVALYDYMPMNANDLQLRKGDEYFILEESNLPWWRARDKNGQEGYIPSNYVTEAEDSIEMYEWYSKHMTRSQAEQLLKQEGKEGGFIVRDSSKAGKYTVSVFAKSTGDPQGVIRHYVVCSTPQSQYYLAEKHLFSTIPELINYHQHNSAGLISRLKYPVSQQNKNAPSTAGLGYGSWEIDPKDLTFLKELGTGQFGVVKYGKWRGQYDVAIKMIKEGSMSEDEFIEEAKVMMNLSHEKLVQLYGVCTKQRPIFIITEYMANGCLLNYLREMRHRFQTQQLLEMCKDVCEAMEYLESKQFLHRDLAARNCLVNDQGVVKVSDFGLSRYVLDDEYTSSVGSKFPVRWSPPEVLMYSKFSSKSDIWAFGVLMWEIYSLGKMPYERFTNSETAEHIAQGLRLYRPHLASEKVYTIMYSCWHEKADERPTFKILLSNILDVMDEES

[13] = target: Casein kinase I isoform alpha (Homo sapiens) (UniProt P48729); assay: Inhibition of human full length CSNK1A1 expressed in baculovirus assessed as substrate phosphorylation using fluorescence-labelled peptides as substrate at 8 uM after 90 mins by microfluidic peptide phosphorylation assay
Casein kinase I isoform alpha (Homo sapiens), sequence (P48729 2-337 limits assumed): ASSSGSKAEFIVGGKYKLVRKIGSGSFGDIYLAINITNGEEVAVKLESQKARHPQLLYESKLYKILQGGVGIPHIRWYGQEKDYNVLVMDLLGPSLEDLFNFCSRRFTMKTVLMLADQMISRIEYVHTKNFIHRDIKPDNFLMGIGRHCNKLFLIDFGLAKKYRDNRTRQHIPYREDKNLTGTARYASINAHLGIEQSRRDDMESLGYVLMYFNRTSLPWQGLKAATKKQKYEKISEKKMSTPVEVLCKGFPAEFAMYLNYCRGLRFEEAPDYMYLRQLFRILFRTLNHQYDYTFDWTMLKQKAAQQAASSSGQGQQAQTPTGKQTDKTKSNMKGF

[14] = target: Mitogen-activated protein kinase 1 (Homo sapiens) (UniProt P28482); assay: Inhibition of human full length ERK2 expressed in Escherichia coli cell assessed as substrate phosphorylation using fluorescence-labelled peptides as substrate at 1000 uM after 90 mins by microfluidic peptide phosphorylation assay
Mitogen-activated protein kinase 1 (Homo sapiens), sequence (P28482 whole entry): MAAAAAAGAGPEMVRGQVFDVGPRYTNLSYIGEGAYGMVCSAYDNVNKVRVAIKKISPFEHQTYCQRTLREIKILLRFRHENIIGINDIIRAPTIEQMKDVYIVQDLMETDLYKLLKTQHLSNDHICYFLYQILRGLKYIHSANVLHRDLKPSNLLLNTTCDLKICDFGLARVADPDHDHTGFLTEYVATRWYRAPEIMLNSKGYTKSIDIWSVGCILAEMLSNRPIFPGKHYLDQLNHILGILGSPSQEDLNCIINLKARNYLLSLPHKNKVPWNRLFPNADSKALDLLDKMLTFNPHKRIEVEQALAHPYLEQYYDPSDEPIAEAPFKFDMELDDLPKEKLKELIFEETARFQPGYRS

NCC1CN(c2ncnc3[nH]c4cnccc4c23)CCO1 (centres undefined)
inhibition [1]: 19.5% | inhibition [2]: 44%

NCCc1ccc(-c2ncnc3[nH]cnc23)cc1
inhibition [3]: 30% | inhibition [4]: 67.5% | inhibition [5]: 45.5%

NC1(Cc2ccc(Cl)cc2)CCN(c2ncnc3[nH]ccc23)CC1
inhibition [6]: 0%

c1nc(N2CCOCC2)c2nc[nH]c2n1
inhibition [7]: 38% | inhibition [8]: 95.5%

CNCc1ccc(-c2ncnc3[nH]cnc23)cc1
inhibition [9]: 75%

NCC1CCN(c2ncnc3[nH]ccc23)CC1
inhibition [10]: 5% | inhibition [11]: 50.5% | inhibition [12]: 4.5% | inhibition [13]: 32.5%

c1cnc2[nH]ccc2c1
inhibition [14]: 23.5%
